ChEMBL document CHEMBL1201862, “PubChem BioAssay data set” (2004)
Active and inactive are the calls of the source.

Tests used:
[1] = Luminescence Cell-Based Dose Confirmation HTS to Identify Activators of 5'UTR Stem-Loop Driven Alpha-Synuclein mRNA Translation in H4 Neuroglioblastoma Cells. [Related pubchem assays: 1829 (Project Summary), 1814 (Primary HTS)]; format: functional
[2] = Luminescence Cell-Based Dose Response HTS to Identify Activators of Luciferase Translation or Activity in H4 […] Cells. [Related pubchem assays: 1829 (Project Summary), 1814 (Primary HTS)]; format: functional
H4 = experiment: Luminescence Cell-Based Dose Response HTS to Identify Activators of 5'UTR Stem-Loop Driven Prion Protein mRNA Translation in H4 Neuroglioblastoma Cells. [Related pubchem assays: 1829 (Project Summary), 1814 (Primary HTS)]; format: functional; settings: Homo sapiens
[3] = biological target: T1, Oxysterols receptor LXR-beta (Homo sapiens, UniProt P55055); format: functional, cell-based
T1 sequence (P55055 whole entry): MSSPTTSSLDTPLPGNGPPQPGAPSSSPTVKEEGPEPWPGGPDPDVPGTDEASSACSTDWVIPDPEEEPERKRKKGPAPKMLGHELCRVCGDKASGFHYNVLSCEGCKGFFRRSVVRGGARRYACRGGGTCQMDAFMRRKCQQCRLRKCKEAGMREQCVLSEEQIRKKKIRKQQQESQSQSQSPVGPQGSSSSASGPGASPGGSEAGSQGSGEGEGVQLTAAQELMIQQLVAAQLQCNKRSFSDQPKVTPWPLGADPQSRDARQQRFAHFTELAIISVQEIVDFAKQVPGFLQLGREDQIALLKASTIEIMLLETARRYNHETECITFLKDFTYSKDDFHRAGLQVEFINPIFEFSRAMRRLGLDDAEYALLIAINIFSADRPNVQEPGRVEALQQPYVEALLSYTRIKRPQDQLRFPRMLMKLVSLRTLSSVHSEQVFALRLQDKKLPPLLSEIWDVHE

Protein skinhead-1 = biological target: T2, Protein skinhead-1 (Caenorhabditis elegans, UniProt P34707); format: functional
T2 sequence (P34707 whole entry): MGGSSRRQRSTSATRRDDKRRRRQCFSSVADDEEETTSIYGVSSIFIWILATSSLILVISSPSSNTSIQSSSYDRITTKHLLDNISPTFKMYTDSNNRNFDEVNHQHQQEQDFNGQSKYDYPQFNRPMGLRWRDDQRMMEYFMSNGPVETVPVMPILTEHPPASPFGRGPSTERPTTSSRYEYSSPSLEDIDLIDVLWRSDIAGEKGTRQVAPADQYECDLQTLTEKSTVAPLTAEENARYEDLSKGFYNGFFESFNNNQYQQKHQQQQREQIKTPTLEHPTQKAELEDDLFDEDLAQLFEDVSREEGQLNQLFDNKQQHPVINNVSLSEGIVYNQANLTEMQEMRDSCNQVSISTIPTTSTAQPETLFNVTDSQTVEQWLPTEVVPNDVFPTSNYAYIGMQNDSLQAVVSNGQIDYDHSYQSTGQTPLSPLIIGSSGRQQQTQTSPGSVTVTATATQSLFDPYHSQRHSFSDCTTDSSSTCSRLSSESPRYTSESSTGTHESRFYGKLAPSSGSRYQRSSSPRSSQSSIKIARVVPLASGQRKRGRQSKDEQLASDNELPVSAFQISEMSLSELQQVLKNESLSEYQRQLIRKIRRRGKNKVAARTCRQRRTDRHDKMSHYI

[4] = biological target: T1, Oxysterols receptor LXR-beta; format: functional, cell-based; remark: listed apart in the source
[5] = biological target: Disintegrin and metalloproteinase domain-containing protein 17 (Homo sapiens, UniProt P78536); experiment: exosite inhibitors of ADAM17, dose response, biochemical (AID 743260)
Chain of Disintegrin and metalloproteinase domain-containing protein 17 (P78536 whole entry, the tested form may be a part): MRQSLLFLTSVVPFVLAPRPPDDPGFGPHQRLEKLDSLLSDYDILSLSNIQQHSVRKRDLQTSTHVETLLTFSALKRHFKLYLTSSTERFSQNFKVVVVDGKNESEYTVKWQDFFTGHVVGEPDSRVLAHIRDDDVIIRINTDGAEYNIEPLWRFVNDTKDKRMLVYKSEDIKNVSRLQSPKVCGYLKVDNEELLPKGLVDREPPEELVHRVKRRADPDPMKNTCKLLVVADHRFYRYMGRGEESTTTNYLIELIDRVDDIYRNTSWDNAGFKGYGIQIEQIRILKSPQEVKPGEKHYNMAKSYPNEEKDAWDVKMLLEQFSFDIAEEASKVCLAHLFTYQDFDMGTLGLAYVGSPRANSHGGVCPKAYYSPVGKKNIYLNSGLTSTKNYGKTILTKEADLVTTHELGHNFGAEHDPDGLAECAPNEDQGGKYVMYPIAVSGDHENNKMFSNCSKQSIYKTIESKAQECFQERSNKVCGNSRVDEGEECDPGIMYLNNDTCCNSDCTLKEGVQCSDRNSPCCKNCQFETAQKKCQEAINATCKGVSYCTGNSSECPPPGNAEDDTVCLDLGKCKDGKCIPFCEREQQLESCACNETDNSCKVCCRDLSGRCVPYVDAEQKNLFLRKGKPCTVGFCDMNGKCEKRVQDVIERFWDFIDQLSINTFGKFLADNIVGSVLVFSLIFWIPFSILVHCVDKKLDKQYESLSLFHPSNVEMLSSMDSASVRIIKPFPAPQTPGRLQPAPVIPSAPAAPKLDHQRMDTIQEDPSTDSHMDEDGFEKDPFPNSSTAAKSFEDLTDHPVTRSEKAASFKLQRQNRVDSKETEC

[6] = ADAM10 protease inhibitors, dose response, selectivity assay for ADAM17 exosite inhibitor project, biochemical, FRET peptide substrate, recombinant human ADAM10 (AID 743259);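 further: ADAM10 enzyme cleaving a FRET peptide substrate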
Paired box protein Pax-8 = Paired box protein Pax-8 (Homo sapiens, UniProt Q06710); experiment: inhibitors of PAX8-driven TPO luciferase reporter, dose response, RMG-I cells, cherry-pick (AID 687027); format: functional, cell-based;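 further: luciferase reporter driven by Pax8 target thyroperoxidase promoter measured by SteadyGlo luminescence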
Chain of Paired box protein Pax-8 (Q06710 whole entry): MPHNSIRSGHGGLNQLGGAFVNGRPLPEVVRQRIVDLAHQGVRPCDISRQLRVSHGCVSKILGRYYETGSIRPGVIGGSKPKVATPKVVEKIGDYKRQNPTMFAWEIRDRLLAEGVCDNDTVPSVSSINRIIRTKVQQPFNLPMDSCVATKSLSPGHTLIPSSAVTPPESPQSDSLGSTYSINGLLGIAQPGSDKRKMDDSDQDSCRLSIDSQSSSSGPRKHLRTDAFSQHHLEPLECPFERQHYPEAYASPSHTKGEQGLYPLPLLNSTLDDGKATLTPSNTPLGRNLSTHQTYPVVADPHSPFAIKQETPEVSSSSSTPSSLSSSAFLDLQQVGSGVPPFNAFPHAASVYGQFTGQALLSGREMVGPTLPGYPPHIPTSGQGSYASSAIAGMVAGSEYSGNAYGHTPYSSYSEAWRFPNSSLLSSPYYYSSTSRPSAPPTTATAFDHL

[7] = PAX2 cell-based inhibition, dose response, selectivity assay for PAX8 inhibitor project, plate reader, dry powder samples (AID 743048); format: functional;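 further: HEK293 cells carrying a WT1 promoter luciferase reporter driven by expressed Pax2; potency is for inhibition of Pax2 driven reporter signal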
[8] = PAX5 activity inhibitors, dose response, selectivity assay for PAX8 inhibitor project, cell-based, plate reader, dry powder samples (AID 743047); format: functional;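 further: HEK293 cells carrying a Pax5 driven CD19 promoter luciferase reporter; potency of inhibitors that lower reporter luminescence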
[9] = cytotoxicity in COV434 cells, dose response, cytotoxicity control for PAX8 inhibitor project, cell-based, plate reader, dry powder, SA7 (AID 743145); format: functional
[10] = cytotoxicity dependent on PAX8, dose response, cell-based, plate reader, dry powder (AID 743049); format: functional
[11] = CTGF mRNA reduction under YAP1 overexpression, dose response, mechanism study for YAP1 pathway inhibitor project, DLD1 cells, RT-qPCR, cherry-pick (AID 1053127); format: functional, cell-based; settings: DLD-1
[12] = P. falciparum 3D7-ScDHODH growth inhibitors, dose response, SYBR Green, dry powder samples (AID 1159570); format: functional, cell-based;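 further: parasite growth measured after 72 hours of compound exposure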
[13] = HepG2 cell cytotoxicity, dose response, cytotoxicity control, plate reader, dry powder samples (AID 1159569); format: functional, cell-based;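 further: inhibitor potency with signal falling toward the positive control level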
[14] = P. falciparum Dd2 growth inhibitors, dose response, SYBR Green, cherry-picked samples (AID 1159567); format: functional, cell-based
[15] = P. falciparum Dd2 growth inhibitors, dose response, SYBR Green, dry powder samples (AID 1159566); format: functional, cell-based;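 further: potency for growth inhibition with lower SYBR green DNA signal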
[16] = P. falciparum ATP4 D1247Y mutant growth inhibitors, dose response, NITD609-resistant line, SYBR Green, dry powder (AID 1159571); format: functional, cell-based;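 further: parasites synchronized at ring stage by sorbitol before testing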
[17] = HEK293T cytotoxicity, dose response, cytotoxicity control for miR-122 modulator project, cell-based, activator set, cherry-pick (AID 720690); format: functional;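 further: HEK293T human cells scored for general mammalian cytotoxicity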
[18] = HepG2 cell cytotoxicity, dose response, cytotoxicity control, cherry-picked samples (AID 1159577); format: functional, cell-based
CAAX prenyl protease 2 = biological target: T3, CAAX prenyl protease 2 (Saccharomyces cerevisiae S288c, UniProt Q03530); format: biochemical
T3 sequence (Q03530 whole entry): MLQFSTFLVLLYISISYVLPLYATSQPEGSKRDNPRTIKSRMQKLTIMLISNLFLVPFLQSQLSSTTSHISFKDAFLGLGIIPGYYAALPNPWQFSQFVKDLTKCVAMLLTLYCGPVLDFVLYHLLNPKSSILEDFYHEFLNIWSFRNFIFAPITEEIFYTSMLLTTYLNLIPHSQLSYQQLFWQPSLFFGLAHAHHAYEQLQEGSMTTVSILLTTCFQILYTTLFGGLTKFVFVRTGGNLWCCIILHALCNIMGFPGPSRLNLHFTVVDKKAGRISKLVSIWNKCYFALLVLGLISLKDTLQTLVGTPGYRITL

[19] = HepG2 cell cytotoxicity, dose response, cytotoxicity control, ATP luminescence, cherry-pick, set 6 (AID 1053125); format: functional, cell-based
[20] = M. tuberculosis growth inhibition, HTS (AID 449762); format: functional
[21] = microbe, parasite or virus in culture; format: functional; settings: Mycobacterium tuberculosis
Estrogen receptor = Estrogen receptor (Homo sapiens, UniProt P03372);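 further: potency for inhibiting coactivator peptide recruitment to the receptor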
Chain of Estrogen receptor (P03372 whole entry): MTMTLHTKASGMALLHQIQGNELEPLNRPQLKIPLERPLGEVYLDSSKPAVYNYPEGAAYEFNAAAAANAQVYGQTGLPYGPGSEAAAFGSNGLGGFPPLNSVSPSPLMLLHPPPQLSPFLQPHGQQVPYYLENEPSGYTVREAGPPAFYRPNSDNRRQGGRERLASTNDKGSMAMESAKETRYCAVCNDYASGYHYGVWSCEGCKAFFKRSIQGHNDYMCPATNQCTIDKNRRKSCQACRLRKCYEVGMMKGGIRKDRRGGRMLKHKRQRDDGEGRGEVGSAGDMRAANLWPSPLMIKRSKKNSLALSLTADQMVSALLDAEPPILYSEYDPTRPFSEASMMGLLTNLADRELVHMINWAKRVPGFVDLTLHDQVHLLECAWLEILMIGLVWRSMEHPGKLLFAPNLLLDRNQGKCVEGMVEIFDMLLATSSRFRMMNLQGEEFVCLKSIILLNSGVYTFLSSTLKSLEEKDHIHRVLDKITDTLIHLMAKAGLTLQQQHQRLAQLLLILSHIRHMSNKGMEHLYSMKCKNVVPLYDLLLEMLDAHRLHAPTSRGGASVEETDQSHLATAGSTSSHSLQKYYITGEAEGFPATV

Estrogen receptor beta [22] = biological target: T4, Estrogen receptor beta (Homo sapiens, UniProt Q92731);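 further: recombinant ER-beta bound to coactivator SRC1 peptide in presence of estradiol agonist; inhibitors block coactivator peptide binding and lower the FRET signal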
T4 sequence (Q92731 whole entry): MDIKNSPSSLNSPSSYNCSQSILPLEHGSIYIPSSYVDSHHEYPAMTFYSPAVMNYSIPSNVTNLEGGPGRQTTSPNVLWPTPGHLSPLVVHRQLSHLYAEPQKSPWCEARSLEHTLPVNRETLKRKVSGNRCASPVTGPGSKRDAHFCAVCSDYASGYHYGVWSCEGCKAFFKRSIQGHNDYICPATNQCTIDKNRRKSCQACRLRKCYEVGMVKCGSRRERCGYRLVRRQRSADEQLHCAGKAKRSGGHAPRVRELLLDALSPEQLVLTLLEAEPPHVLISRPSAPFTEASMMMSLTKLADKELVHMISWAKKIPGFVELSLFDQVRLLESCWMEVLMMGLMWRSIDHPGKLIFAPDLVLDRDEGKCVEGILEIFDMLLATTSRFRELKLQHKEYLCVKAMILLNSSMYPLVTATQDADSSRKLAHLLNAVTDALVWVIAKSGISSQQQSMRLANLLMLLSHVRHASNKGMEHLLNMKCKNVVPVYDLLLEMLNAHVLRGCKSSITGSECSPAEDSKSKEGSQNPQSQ

Estrogen receptor beta [23] = biological target: T4, Estrogen receptor beta; experiment: ERβ–SRC-3 coactivator interaction inhibitors, confirmation, orthogonal assay, biochemical, ELISA, streptavidin-HRP readout (AID 1060)

Structure (SMILES): CC1=CN2C(=N)/C(=C/c3ccco3)C(=O)N=C2S1
- EC50 [1]: 5.22 µM (active)
- EC50 [2]: 6.38 µM (active)
- EC50 (H4): 1.63 µM (active)
- EC50 [3]: > 67.5 µM (inactive)

Structure (SMILES): c1ccc(CNC2=Nc3ccccc3CS2)nc1
- EC50 [3]: > 67.5 µM (inactive)

Structure (SMILES): O=C(/C=C/Nc1ccc(F)c(Cl)c1)c1ccco1
- IC50 (Protein skinhead-1): 25.2 µM (active)
- EC50 [4]: > 67.5 µM (inactive)
- EC50 (cells): > 67.5 µM (inactive)

Structure (SMILES): COc1ccc(S(=O)(=O)Nc2ccc(Nc3ccccc3)cc2)cc1
- IC50 [5]: > 69.5 µM (inactive)
- IC50 [6]: 12 µM (inactive)

Structure (SMILES): C[C@H](CO)N1C[C@H](C)[C@@H](CN(C)S(=O)(=O)c2ccc(Cl)cc2)OCCCC[C@H](C)Oc2ccc(NS(=O)(=O)c3ccccc3)cc2C1=O
- AC50 (Paired box protein Pax-8): 6.52 µM (active)
- AC50 [7]: 23.7 µM (active)
- AC50 [8]: 26.3 µM (active)
- AC50 [9]: 27.6 µM (active)
- AC50 [10]: 14 µM (active)

Structure (SMILES): C[C@@H]1CN([C@@H](C)CO)C(=O)c2ccccc2-c2ccccc2CO[C@H]1CN(C)C(=O)Nc1cccc(C(F)(F)F)c1
- AC50 [11]: 8.76 µM (active)
- AC50 [12]: 0.779 µM (active)
- AC50 [13]: > 100 µM (inactive)
- AC50 [14]: 1.55 µM (active)
- AC50 [15]: 1.03 µM (active)
- AC50 [16]: 2.38 µM (active)

Structure (SMILES): CN(C)CC(=O)N1CCCCN2[C@@H](CO)[C@@H](c3ccc(/C=C/c4ccccc4)cc3)[C@@H]2C1
- AC50 [17]: 23.6 µM (active)
- AC50 [14]: 1.14 µM (active)
- AC50 [18]: 8.82 µM (active)

Structure (SMILES): CCOC(=O)c1cc2c(=O)n3cccc(C)c3nc2n(CC(C)C)/c1=N/C(=O)c1ccco1
- AC50 (CAAX prenyl protease 2): 14 µM (active)
- AC50 [19]: > 52 µM (inactive)

Structure (SMILES): CCCCCCCC(=O)N/N=C(/C)c1c(O)cc(C)oc1=O
- IC50 [20]: > 100 µM (active)
- CC50 [21]: > 40 µM (active)

Structure (SMILES): CC(=N)/C(C#N)=C(/O)CSc1nnc(-c2ccc(OC(F)F)cc2)o1
- IC50 (Estrogen receptor): 46.6 µM (not active)
- IC50 (Estrogen receptor beta [22]): 9.26 µM (active)
- IC50 (Estrogen receptor beta [23]): 18.6 µM (not active)

Structure (SMILES): Cc1ccc(/N=C/C2=C(O)C3(C)CCC2C3(C)C)cc1C (configuration not stated)
- IC50 [20]: > 100 µM (active)
